target: T1, human TrkA receptor (Homo sapiens, UniProt P04629); experiment: DiscoverX PathHunter TrkA functional assay (NGF-stimulated U2OS cells); type: cell-based; details: U2OS cells expressing human TrkA-PK, Shc1-EA and p75NTR; compound 1 h, then NGF at ~80% of maximal response for 3 h; luminescence
T1 construct: host or cells: U2OS cells (PathHunter cell line)
T1 sequence (P04629 33-796): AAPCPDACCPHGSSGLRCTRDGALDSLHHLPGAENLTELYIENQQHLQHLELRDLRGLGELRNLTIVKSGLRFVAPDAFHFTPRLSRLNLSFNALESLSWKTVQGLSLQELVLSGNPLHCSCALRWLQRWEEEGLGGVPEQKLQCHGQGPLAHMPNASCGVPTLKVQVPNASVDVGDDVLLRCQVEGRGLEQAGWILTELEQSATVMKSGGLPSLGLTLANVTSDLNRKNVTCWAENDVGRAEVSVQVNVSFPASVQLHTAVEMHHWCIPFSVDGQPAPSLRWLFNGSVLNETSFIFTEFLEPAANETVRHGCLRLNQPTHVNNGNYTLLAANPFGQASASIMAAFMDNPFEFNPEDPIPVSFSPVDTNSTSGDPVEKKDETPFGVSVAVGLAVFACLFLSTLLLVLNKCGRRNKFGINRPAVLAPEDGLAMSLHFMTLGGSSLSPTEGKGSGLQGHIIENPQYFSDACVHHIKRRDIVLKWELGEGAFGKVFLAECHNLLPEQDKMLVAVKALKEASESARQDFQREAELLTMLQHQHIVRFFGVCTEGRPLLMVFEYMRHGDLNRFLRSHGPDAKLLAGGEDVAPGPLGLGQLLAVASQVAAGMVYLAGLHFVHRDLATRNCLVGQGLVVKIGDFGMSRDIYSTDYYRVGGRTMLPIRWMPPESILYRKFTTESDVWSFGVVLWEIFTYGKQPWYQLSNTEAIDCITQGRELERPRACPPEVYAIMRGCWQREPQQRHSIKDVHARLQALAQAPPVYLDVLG

SMILES | IC50
Cn1ccc(-c2cc(C(=O)Nc3c(-c4ccccc4)nc4ccccn34)ccc2C(F)(F)F)n1 [Compound 4, 3-(1-methyl-1H-pyrazol-3-yl)-N-(2-phenylimidazo[1,2-a]pyridin-3-yl)-4-(trifluoromethyl) benzamide] | 1.4 nM
C[C@@H](O)c1ccn2c(NC(=O)c3cc(-c4ccn(C)n4)c(C(F)(F)CF)cc3F)c(-c3ccccc3)nc2c1 [Compound 115, 2-fluoro-N-{7-[(1R)-1-hydroxyethyl]-2-phenylimidazo[1,2-a]pyridin-3-yl}-5-(1-methyl-1H-pyrazol-3-yl)-4-(1,1,2-trifluoroethyl)benzamide] | 3.7 nM
Cn1ccc(-c2cc(C(=O)Nc3c(-c4ccncn4)nc4ccccn34)ccc2C(F)(F)F)n1 [Compound 8, 3-(1-methyl-1H-pyrazol-3-yl)-N-(2-pyrimidin-4-ylimidazo[1,2-a]pyridin-3-yl)-4-(trifluoromethyl) benzamide] | 568 nM
Cn1ccc(-c2cc(C(=O)Nc3c(-c4ccccc4)nn4ccc(C(C)(C)O)cc34)c(F)cc2C(F)(F)F)n1 [Compound 103, 2-fluoro-N-[5-(1-hydroxy-1-methylethyl)-2-phenylpyrazolo[1,5-a]pyridin-3-yl]-5-(1-methyl-1H-pyrazol-3-yl)-4-(trifluoromethyl) benzamide] | 0.94 nM
Cn1ccc(-c2cc(C(=O)Nc3c(-c4ccccc4)nc4scnn34)ccc2C(F)(F)F)n1 [Compound 17, 3-(1-methyl-1H-pyrazol-3-yl)-N-(6-phenylimidazo[2,1-b][1,3,4]thiadiazol-5-yl)-4-(trifluoromethyl) benzamide] | 9.2 nM
Cn1ccc(-c2cc(C(=O)Nc3c(-c4ccccc4)nc4cc(C(O)C(F)(F)F)ccn34)ccc2C(F)(F)F)n1 (single isomer, unassigned) [Compound 63, (R or S)-3-(1-methyl-1H-pyrazol-3-yl)-N-[2-phenyl-7-(2,2,2-trifluoro-1-hydroxyethyl)imidazo[1,2-a]pyridin-3-yl]-4-(trifluoromethyl) benzamide] | 1.6 nM
Cn1ccc(-c2cc(C(=O)Nc3c(-c4ccccc4)nc4cc(Br)ccn34)ccc2C(F)(F)F)n1 [Compound 39, N-(7-bromo-2-phenylimidazo[1,2-a]pyridin-3-yl)-3-(1-methyl-1H-pyrazol-3-yl)-4-(trifluoromethyl) benzamide] | 2.7 nM
O=C(Nc1c(-c2ccccc2)nc2ccccn12)c1cc(-c2ncccn2)c(Cl)cc1F [Compound 30, 4-chloro-2-fluoro-N-(2-phenylimidazo[1,2-a]pyridin-3-yl)-5-pyrimidin-2-ylbenzamide] | 40 nM
Cn1ccc(-c2cc(C(=O)Nc3c(-c4ccccc4)nc4ccccn34)c(O)cc2C(F)(F)F)n1 [Compound 32, 2-hydroxy-5-(1-methyl-1H-pyrazol-3-yl)-N-(2-phenylimidazo[1,2-a]pyridin-3-yl)-4-(trifluoromethyl) benzamide] | 477 nM
O=C(O)c1ccc2[nH]c(-c3ccccc3)c(NC(=O)c3cc(-c4ncccn4)c(C(F)(F)F)cc3F)c2c1 [Compound 91, 3-({[2-fluoro-5-pyrimidin-2-yl-4-(trifluoromethyl)phenyl]carbonyl}amino)-2-phenyl-1H-indole-5-carboxylic acid] | 11 nM
CC(O)c1ccc2[nH]c(-c3ccccc3)c(NC(=O)c3cc(-c4ccn(C)n4)c(C(F)(F)F)cc3F)c2c1 (single isomer, unassigned) [Compound 113, (R or S)-2-fluoro-N-[5-(1-hydroxyethyl)-2-phenyl-1H-indol-3-yl]-5-(1-methyl-1H-pyrazol-3-yl)-4-(trifluoromethyl) benzamide] | 1.7 nM
Cn1ccc(-c2cc(C(=O)Nc3c(-c4ccccc4)nc4cc(N5CCNCC5)ccn34)ccc2C(F)(F)F)n1 [Compound 90, 3-(1-methyl-1H-pyrazol-3-yl)-N-(2-phenyl-7-piperazin-1-ylimidazo[1,2-a]pyridin-3-yl)-4-(trifluoromethyl) benzamide] | 3.8 nM
Cc1cnn(-c2nc3ccccn3c2NC(=O)c2ccc(C(F)(F)F)c(-c3ccn(C)n3)c2)c1 [Compound 13, 3-(1-methyl-1H-pyrazol-3-yl)-N-[2-(4-methyl-1H-pyrazol-1-yl)imidazo[1,2-a]pyridin-3-yl]-4-(trifluoromethyl) benzamide] | 17 nM
Cn1ccc(-c2cc(C(=O)Nc3c(-c4ccccc4)[nH]c4ccc(C(=O)O)cc34)c(F)cc2C(F)(F)F)n1 [Compound 110, 3-({[2-fluoro-5-(1-methyl-1H-pyrazol-3-yl)-4-(trifluoromethyl)phenyl]carbonyl}amino)-2-phenyl-1H-indole-5-carboxylic acid] | 3.6 nM
Cn1ccc(-c2cc(C(=O)Nc3c(-c4ccccc4)[nH]c4ccc(C#N)cc34)c(F)cc2C(F)(F)F)n1 [Compound 108, N-(5-cyano-2-phenyl-1H-indol-3-yl)-2-fluoro-5-(1-methyl-1H-pyrazol-3-yl)-4-(trifluoromethyl) benzamide] | 1 nM
Cn1ccc(-c2cc(C(=O)Nc3c(-c4ccccc4)nc4ccc(C(C)(C)O)cn34)ccc2C(F)(F)F)n1 [Compound 36, N-[6-(1-hydroxy-1-methylethyl)-2-phenylimidazo[1,2-a]pyridin-3-yl]-3-(1-methyl-1H-pyrazol-3-yl)-4-(trifluoromethyl) benzamide] | 0.34 nM

The remaining compounds from weak to strong by IC50, led by results:

IC50 | SMILES
550 nM | O=C(Nc1c(-c2ccccc2)nc2ccccn12)c1ccc(OC(F)(F)F)cc1 [Compound 1, N-(2-phenylimidazo[1,2-a]pyridin-3-yl)-4-(trifluoromethoxy) benzamide]
139 nM | O=C(Nc1c(-c2ccccc2)nc2sccn12)c1ccc(C(F)(F)F)cc1F [Compound 2, 2-fluoro-N-(6-phenylimidazo[2,1-b][1,3]thiazol-5-yl)-4-(trifluoromethyl) benzamide]
26 nM | Cc1ccc(C(=O)Nc2c(-c3ccccc3)nc3ccccn23)cc1-c1ccn(C)n1 [Compound 15, 4-methyl-3-(1-methyl-1H-pyrazol-3-yl)-N-(2-phenylimidazo[1,2-a]pyridin-3-yl)benzamide]
20 nM | Cn1ccc(-c2cc(C(=O)Nc3c(-c4ccccc4)nc4cc(CNC(=O)CO)ccn34)ccc2C(F)(F)F)n1 [Compound 80, N-(7-{[(hydroxyacetyl)amino]methyl}-2-phenylimidazo[1,2-a]pyridin-3-yl)-3-(1-methyl-1H-pyrazol-3-yl)-4-(trifluoromethyl) benzamide]
15 nM | CNC(=O)NCc1ccn2c(NC(=O)c3ccc(C(F)(F)F)c(-c4ccn(C)n4)c3)c(-c3ccccc3)nc2c1 [Compound 81, N-(7-{[(methylcarbamoyl)amino]methyl}-2-phenylimidazo[1,2-a]pyridin-3-yl)-3-(1-methyl-1H-pyrazol-3-yl)-4-(trifluoromethyl) benzamide]
8.8 nM | Cn1ccc(-c2cc(C(=O)Nc3c(-c4ccccc4)nc4ccc(CN5CC(F)C5)cn34)ccc2C(F)(F)F)n1 [Compound 47, N-{6-[(3-fluoroazetidin-1-yl)methyl]-2-phenylimidazo[1,2-a]pyridin-3-yl}-3-(1-methyl-1H-pyrazol-3-yl)-4-(trifluoromethyl) benzamide]
5 nM | O=C(Nc1c(-c2ccccc2)nn2ccccc12)c1cc(-c2ncccn2)c(C(F)(F)F)cc1F [Compound 85, 2-fluoro-N-(2-phenylpyrazolo[1,5-a]pyridin-3-yl)-5-pyrimidin-2-yl-4-(trifluoromethyl) benzamide]
4.9 nM | Cn1ccc(-c2cc(C(=O)Nc3c(-c4ccccc4)nc4ccc(C(O)CO)cn34)ccc2C(F)(F)F)n1 (single isomer, unassigned) [Compound 52, (R or S)-N-[6-(1,2-dihydroxyethyl)-2-phenylimidazo[1,2-a]pyridin-3-yl]-3-(1-methyl-1H-pyrazol-3-yl)-4-(trifluoromethyl) benzamide]
3.5 nM | CC(c1ccn2c(NC(=O)c3cc(-c4ccn(C)n4)c(C(F)(F)F)cc3F)c(-c3ccccc3)nc2c1)N(C)C (single isomer, unassigned) [Compound 51, (R or S)-N-{7-[1-(dimethylamino)ethyl]-2-phenylimidazo[1,2-a]pyridin-3-yl}-2-fluoro-5-(1-methyl-1H-pyrazol-3-yl)-4-(trifluoromethyl) benzamide]
1.9 nM | CC(O)c1ccn2nc(-c3ccccc3)c(NC(=O)c3ccc(C(F)(F)F)c(-c4ccn(C)n4)c3)c2c1 (single isomer, unassigned) [Compound 97, (R or S)-N-[5-(1-hydroxyethyl)-2-phenylpyrazolo[1,5-a]pyridin-3-yl]-3-(1-methyl-1H-pyrazol-3-yl)-4-(trifluoromethyl) benzamide]
1.5 nM | Cc1coc(-c2cc(C(=O)Nc3c(-c4ccccc4)nc4cc(C(C)O)ccn34)ccc2C(F)(F)F)n1 (single isomer, unassigned) [Compound 62, (R or S)-N-[7-(1-hydroxyethyl)-2-phenylimidazo[1,2-a]pyridin-3-yl]-3-(4-methyl-1,3-oxazol-2-yl)-4-(trifluoromethyl) benzamide]
1.4 nM | CC(O)c1ccc2[nH]c(-c3ccccc3)c(NC(=O)c3cc(-c4ccn(C)n4)c(C(F)(F)F)cc3F)c2c1 (single isomer, unassigned) [Compound 112, (R or S)-2-fluoro-N-[5-(1-hydroxyethyl)-2-phenyl-1H-indol-3-yl]-5-(1-methyl-1H-pyrazol-3-yl)-4-(trifluoromethyl) benzamide]
1.1 nM | CC(O)c1ccn2c(NC(=O)c3cc(-c4ncccn4)c(C(F)(F)F)cc3F)c(-c3ccccc3)nc2c1 (single isomer, unassigned) [Compound 57, (R or S)-2-fluoro-N-[7-(1-hydroxyethyl)-2-phenylimidazo[1,2-a]pyridin-3-yl]-5-pyrimidin-2-yl-4-(trifluoromethyl) benzamide]
0.92 nM | CC(O)c1ccn2c(NC(=O)c3cc(-c4ncccn4)c(C(F)(F)F)cc3F)c(-c3ccccc3)nc2c1 (single isomer, unassigned) [Compound 58, (R or S)-2-fluoro-N-[7-(1-hydroxyethyl)-2-phenylimidazo[1,2-a]pyridin-3-yl]-5-pyrimidin-2-yl-4-(trifluoromethyl) benzamide]

Source: US9862716B2, “TRKA kinase inhibitors, compositions and methods thereof” (Merck Sharp & Dohme Corp., priority 2014, dated 2018)
